Reference: US20220241409A1, “WATER SOLUBLE ADJUVANT AND COMPOSITION CONTAINING SAME” (Sumitomo Dainippon Pharma Co., Ltd., priority 2019, published 2022)

Assays:
human TLR7 = target: T1, human TLR7 (Homo sapiens, UniProt Q9NYK1); test: Human TLR7 reporter gene assay (Test 1); type: cell-based; details: half-maximal SEAP induction, TLR7/NF-κB/SEAPorter HEK293 cell line, overnight 37° C., 0.1% DMSO
T1 construct: expresses full-length human TLR7 and secretory alkaline phosphatase (SEAP) reporter gene; host or cells: TLR7/NF-κB/SEAPorter HEK293 cell line
T1 sequence (Q9NYK1 27-1049): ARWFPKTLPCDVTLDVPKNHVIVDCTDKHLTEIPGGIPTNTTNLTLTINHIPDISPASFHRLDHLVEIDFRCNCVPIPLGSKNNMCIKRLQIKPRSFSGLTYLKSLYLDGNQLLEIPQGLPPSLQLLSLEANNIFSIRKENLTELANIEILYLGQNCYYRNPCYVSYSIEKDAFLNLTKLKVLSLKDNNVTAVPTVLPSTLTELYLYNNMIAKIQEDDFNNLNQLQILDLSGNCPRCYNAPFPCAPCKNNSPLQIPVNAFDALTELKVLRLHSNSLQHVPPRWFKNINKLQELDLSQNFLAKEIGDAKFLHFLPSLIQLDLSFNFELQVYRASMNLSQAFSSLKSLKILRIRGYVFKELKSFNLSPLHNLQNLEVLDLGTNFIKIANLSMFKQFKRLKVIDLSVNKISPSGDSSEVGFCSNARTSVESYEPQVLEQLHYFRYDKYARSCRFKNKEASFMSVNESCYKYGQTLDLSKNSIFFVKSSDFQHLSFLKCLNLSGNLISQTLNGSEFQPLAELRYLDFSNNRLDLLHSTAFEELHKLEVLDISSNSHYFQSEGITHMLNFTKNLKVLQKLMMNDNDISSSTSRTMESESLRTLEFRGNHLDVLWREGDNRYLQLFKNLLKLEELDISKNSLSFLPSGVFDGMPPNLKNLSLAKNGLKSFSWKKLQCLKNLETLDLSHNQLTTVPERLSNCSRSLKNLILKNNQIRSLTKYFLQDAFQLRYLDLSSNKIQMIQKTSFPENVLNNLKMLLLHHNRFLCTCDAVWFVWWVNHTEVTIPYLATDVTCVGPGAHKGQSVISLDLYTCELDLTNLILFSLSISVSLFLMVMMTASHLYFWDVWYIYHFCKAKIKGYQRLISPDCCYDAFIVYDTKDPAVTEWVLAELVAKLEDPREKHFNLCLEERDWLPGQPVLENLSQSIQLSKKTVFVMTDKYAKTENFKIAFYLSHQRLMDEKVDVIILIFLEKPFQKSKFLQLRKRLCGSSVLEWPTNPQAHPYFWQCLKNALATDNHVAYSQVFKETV
Text: TLR7/NF-κB/SEAPorter™ HEK293 cell line (Imgenex Corporation) is a stably co-transfected cell line which expresses full-length human TLR7 and secretory alkaline phosphatase (SEAP) reporter gene under the transcriptional regulation of an NF-κB response element. The TLR7 expression of the cell line has been already tested by flow cytometry. Transfectants with stable expression were selected using the antibiotic blasticidin and Geneticin. TLR signaling leads to the translocation of NF-κB and the activation of the promoter results in expression of the SEAP gene. TLR7-specific activation was assessed by determining the level of SEAP produced following overnight incubation of the cells at 37° C. with each compound prepared in Examples and Reference examples in the presence of 0.1% (v/v) dimethylsulfoxide (DMSO). The human TLR7 activity for the present compound was assessed by human TLR7 reporter gene assay, and the results are shown in Tables 6 and 7 as the compound concentration which produced half of the maximal level of SEAP induction (EC50).

mouse TLR7 = target: T2, mouse TLR7 (Mus musculus, UniProt P58681); test: Mouse TLR7 reporter gene assay (Test 2); type: cell-based; details: half-maximal SEAP induction, HEK-Blue mTLR7 cell line, overnight 37° C., 0.1% DMSO
T2 construct: expresses full-length mouse TLR7 and secretory SEAP reporter gene; host or cells: HEK-Blue mTLR7 cell line
T2 sequence (P58681 27-1050): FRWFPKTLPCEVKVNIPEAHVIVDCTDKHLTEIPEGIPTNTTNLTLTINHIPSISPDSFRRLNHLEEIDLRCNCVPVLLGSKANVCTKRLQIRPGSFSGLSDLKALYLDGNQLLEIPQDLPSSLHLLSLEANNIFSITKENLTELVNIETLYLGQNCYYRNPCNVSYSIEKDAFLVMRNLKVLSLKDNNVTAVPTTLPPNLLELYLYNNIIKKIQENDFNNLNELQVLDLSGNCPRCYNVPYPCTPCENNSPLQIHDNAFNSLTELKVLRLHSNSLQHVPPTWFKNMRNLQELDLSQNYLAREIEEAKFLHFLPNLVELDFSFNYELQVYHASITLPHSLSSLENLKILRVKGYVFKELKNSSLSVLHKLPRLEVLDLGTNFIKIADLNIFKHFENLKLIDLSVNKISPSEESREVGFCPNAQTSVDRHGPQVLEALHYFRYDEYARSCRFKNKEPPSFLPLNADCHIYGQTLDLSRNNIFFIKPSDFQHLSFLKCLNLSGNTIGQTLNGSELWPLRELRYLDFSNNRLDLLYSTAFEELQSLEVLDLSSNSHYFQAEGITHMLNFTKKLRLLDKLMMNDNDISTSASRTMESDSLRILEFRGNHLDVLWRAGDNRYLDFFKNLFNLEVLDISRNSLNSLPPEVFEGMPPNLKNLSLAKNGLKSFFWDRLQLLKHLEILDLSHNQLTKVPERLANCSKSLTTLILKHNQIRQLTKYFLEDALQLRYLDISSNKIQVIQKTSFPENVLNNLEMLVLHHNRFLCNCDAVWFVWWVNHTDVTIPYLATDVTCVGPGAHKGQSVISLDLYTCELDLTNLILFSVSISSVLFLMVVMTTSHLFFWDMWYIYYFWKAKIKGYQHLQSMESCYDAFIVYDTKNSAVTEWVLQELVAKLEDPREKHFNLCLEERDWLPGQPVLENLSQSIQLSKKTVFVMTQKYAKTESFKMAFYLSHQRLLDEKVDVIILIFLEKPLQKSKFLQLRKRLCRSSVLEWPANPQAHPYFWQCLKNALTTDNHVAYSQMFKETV
Text: HEK-Blue™ mTLR7 cell line (Invivogen) is a stably co-transfected cell line which expresses full-length mouse TLR7 and secretory SEAP reporter gene under the transcriptional regulation of an NF-κB response element. The TLR7 expression of the cell line has been already tested by RT-PCR. Transfectants with stable expression were selected using the antibiotic blasticidin and Zeocin. TLR signaling leads to the translocation of NF-κB and the activation of the promoter results in expression of the SEAP gene. TLR7-specific activation was assessed by determining the level of SEAP produced following overnight incubation of the cells at 37° C. with each compound prepared in Examples and Reference examples in the presence of 0.1% (v/v) DMSO. The mouse TLR7 activity for the present compound was assessed by mouse TLR7 reporter gene assay, and the results are shown in Tables 8 and 9 as the compound concentration which produced half of the maximal level of SEAP induction (EC50).

[1] = tested on: HLA-A*02:01 transgenic mouse; test: In vivo adjuvant activity, CTL induction with vaccine b, IFNγ ELISPOT (Test 17); details: 0.04 nmol or 0.4 nmol per body added to vaccine b versus no compound; twice
Method: The in vivo adjuvant activity of the compounds prepared in Examples 7, 8, and 9 was evaluated in the following procedure. To vaccine b comprising Compound of formula 4 prepared in Reference example 9 and Peptide SEQ ID No. 3 prepared in Reference example 3 with Montanide ISA51 VG was added the compound prepared in Example 7, 8, or 9 to prepare each vaccine. The vaccine was administered to a HLA-A*02:01 transgenic mouse, and the adjuvant activity of each vaccine was evaluated by the method of testing antigen-specific CTL induction.
(§1) Specifically, Compound of formula 4 and Peptide SEQ ID No. 3 were dissolved in DMSO, and then diluted with water for injection to concentrations of Compound of formula 4 of 3 mg/mL and Peptide SEQ ID No. 3 of 2.25 mg/mL. The diluted peptide solution was mixed and emulsified with an equal volume of Montanide ISA 51 VG to prepare vaccine b. Vaccine b was injected to mice intradermally at the tail base area in an amount for administering 300 μg of Compound of formula 4 per body and 225 μg of Peptide SEQ ID No. 3 per body. […] Then, after removal of the supernatant from the wells, stained spots on the ELISPOT plate were counted.

[2] = tested on: HLA-A*02:01 transgenic mouse; test: In vivo adjuvant activity, CTL induction with vaccine b, IFNγ ELISPOT (Test 18); details: 0.04 nmol per body added to vaccine b versus no compound; twice
Method: The in vivo adjuvant activity of the compound of Example 6 was evaluated in the following procedure. To vaccine b like Test 17 was added the compound prepared in Example 6 to prepare a vaccine. The vaccine was administered to a HLA-A*02:01 transgenic mouse, and the adjuvant activity of the vaccine was evaluated by the method of testing antigen-specific CTL induction.
as §1, with “body. Or, in the step of preparing vaccine b, the compound prepared in Example 6 was added to the diluted peptide solution to prepare a vaccine, and the prepared vaccine was injected to mice intradermally at the tail base area in an amount for administering 300 μg of Compound of formula 4 per body, 225 μg of Peptide SEQ ID No. 3 per body, and 0.04 nmol of the compound prepared in Example 6 per body.” for “body.”

**Q.** For `CCCCOc1nc(N)c2[nH]c(=O)n(Cc3ccc(CN(C)CCOCCOCCOCCOCCO)cn3)c2n1` [Example 1, 6-amino-2-butoxy-9-{[5-(16-hydroxy-2-methyl-5,8,11,14-tetraoxa-2-azahexadecan-1-yl)pyridin-2-yl]methyl}-7,9-dihydro-8H-purin-8-one.trifluoroacetate], which EC50 (human TLR7; Table 6, Examples) is on record?
**A.** 150 nM

**Q.** What about the EC50 (mouse TLR7; Table 8, Examples) of the same compound?
**A.** 1450 nM

**Q.** How did the “CTL counts responsive to Peptide SEQ ID No. 5” value [1] turn out when `CCCCOc1nc(N)c2[nH]c(=O)n(Cc3ccc(CN(C)CCOCCOCCOCCOCCOCCOCCOCCOCCOCCO)nc3)c2n1` [Example 7, 6-Amino-2-butoxy-9-{[6-(31-hydroxy-2-methyl-5,8,11,14,17,20,23,26,29-nonaoxa-2-azahentriacontan-1-yl)pyridin-3-yl]methyl}-7,9-dihydro-8H-purin-8-one] was run?
**A.** more

**Q.** How did the “CTL counts responsive to Peptide SEQ ID No. 5” value [2] turn out when `CCCCOc1nc(N)c2[nH]c(=O)n(Cc3ccc(CN(CCOCCOCCOCCO)CCOCCOCCOCCO)nc3)c2n1` [Example 6, 6-Amino-2-butoxy-9-({6-[13-hydroxy-2-(2-{2-[2-(2-hydroxyethoxy)ethoxy]ethoxy}ethyl)-5,8,11-trioxa-2-azatridecan-1-yl]pyridin-3-yl}methyl)-7,9-dihydro-8H-purin-8-one] was run?
**A.** more

**Q.** With `CCCCOc1nc(N)c2[nH]c(=O)n(Cc3ccc(CNC)cn3)c2n1` [compound 13, reference compound] as the compound, how does the EC50 (human TLR7; Table 7, Reference examples) read?
**A.** 82 nM

**Q.** What about the EC50 (mouse TLR7; Table 9, Reference examples) of the same compound?
**A.** 279 nM

**Q.** For `COCCOc1nc(N)c2[nH]c(=O)n(Cc3ccc(CN(C)CCOCCOCCOCCOCCO)cc3)c2n1` [Example 4, 6-amino-9-{[4-(16-hydroxy-2-methyl-5,8,11,14-tetraoxa-2-azahexadecan-1-yl)phenyl]methyl}-2-(2-methoxyethoxy)-7,9-dihydro-8H-purin-8-one], which EC50 (human TLR7; Table 6, Examples) is on record?
**A.** 5300 nM

**Q.** For `CCCCOc1nc(N)c2[nH]c(=O)n(Cc3ccc(CN(C)CCOCCOCCOCCOCCOCCOCCOCCOCCOCCOCCOCCOCCOCCOCCOCCOCCOCCOCCOCCOCCOCCOCCOCCO)nc3)c2n1` [Example 8, 6-Amino-2-butoxy-9-{[6-(73-hydroxy-2-methyl-5,8,11,14,17,20,23,26,29,32,35,38,41,44,47,50,53,56,59,62,65,68,71-tricosaoxa-2-azatriheptacontan-1-yl)pyridin-3-yl]methyl}-7,9-dihydro-8H-purin-8-one], which “CTL counts responsive to Peptide SEQ ID No. 5” value [1] is on record?
**A.** more
